Test results from patent US10294202B2, “Pyrrolidinones as herbicides” (FMC Corporation, priority 2013, dated 2019).

Columns and labels:
barnyardgrass [1] = assay: Test A pre-/postemergence herbicide test; type: in vivo, Echinochloa crus-galli
In short: (§1)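 Approximately 10 days after treatment in the greenhouse, plants were compared with untreated controls and given a 0–100 visual injury rating. Applications: preemergence directed soil spray; postemergence on 2–10 cm plants at the one- to two-leaf stage.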

crabgrass, large = assay: Test A pre-/postemergence herbicide test; type: in vivo, Digitaria sanguinalis
In short: as §1

giant foxtail = assay: Test A pre-/postemergence herbicide test; type: in vivo, Setaria faberii
In short: as §1

morningglory = assay: Test A pre-/postemergence herbicide test; type: in vivo, Ipomoea spp.
In short: as §1

pigweed = assay: Test A pre-/postemergence herbicide test; type: in vivo, Amaranthus retroflexus
In short: as §1

velvetleaf = assay: Test A pre-/postemergence herbicide test; type: in vivo, Abutilon theophrasti
In short: as §1

wheat = assay: Test A pre-/postemergence herbicide test; type: in vivo, Triticum aestivum
In short: as §1

corn = assay: Test A pre-/postemergence herbicide test; type: in vivo, Zea mays
In short: as §1

rice = assay: Test C flooded paddy test; type: in vivo, Oryza sativa; details: Flood
Description: (§2) Plant species in the flooded paddy test consisted of rice (Oryza sativa), sedge, umbrella (small-flower umbrella sedge, Cyperus difformis), ducksalad (Heteranthera limosa), and barnyardgrass (Echinochloa crus-galli) grown to the 2-leaf stage for testing. At time of treatment, test pots were flooded to 3 cm above the soil surface, treated by application of test compounds directly to the paddy water, and then maintained at that water depth for the duration of the test. Treated plants and controls were maintained in a greenhouse for 13 to 15 days, after which time all species were compared to controls and visually evaluated. Plant response ratings, summarized in Table C, are based on a scale of 0 to 100 where 0 is no effect and 100 is complete control. A dash (-) response means no test result.

sedge, umbrella = assay: Test C flooded paddy test; type: in vivo, Cyperus difformis; details: Flood
Description: as §2

ducksalad = assay: Test C flooded paddy test; type: in vivo, Heteranthera limosa; details: Flood
Description: as §2

barnyardgrass [2] = assay: Test C flooded paddy test; type: in vivo, Echinochloa crus-galli; details: Flood
Description: as §2

[3] = Postemergence, 125 g ai/ha, 0 to 100 scale, 0 no effect, 100 complete control
[4] = Postemergence, 500 g ai/ha, 0 to 100 scale (0 no effect, 100 complete control)
[5] = Preemergence, 125 g ai/ha, visual rating on 0 to 100 scale (0 no effect, 100 complete control)
[6] = preemergence, 500 g ai/ha, 0 to 100 scale
[7] = 31 g ai/ha, scale of 0 to 100 where 0 is no effect and 100 is complete control, 13 to 15 days
[8] = 62 g ai/ha, scale of 0 to 100 where 0 is no effect and 100 is complete control, 13 to 15 days
[9] = 125 g ai/ha, scale of 0 to 100 where 0 is no effect and 100 is complete control, 13 to 15 days
[10] = Postemergence, 1000 g ai/ha, 0 to 100 scale (0 no effect, 100 complete control)
[11] = Preemergence, 1000 g ai/ha, visual rating on 0 to 100 scale (0 no effect, 100 complete control), approx. 10 days

O=C1NCC(c2cccc(F)c2)C1C(=O)Nc1ccccc1C(F)(F)F (racemic) [Compound 2]
Plant response rating, Barnyardgrass (barnyardgrass [1]; [3]): 30 | Plant response rating, Barnyardgrass (barnyardgrass [1]; [4]): 60 | Barnyardgrass plant response rating (barnyardgrass [1]; [5]): 30 | Plant response rating, Barnyardgrass (barnyardgrass [1]; preemergence, 500 g ai/ha, 0 to 100 scale (0 no effect, 100 complete control)): 60 | Plant response rating, Crabgrass, Large (crabgrass, large; [3]): 50 | Plant response rating, Crabgrass, Large (crabgrass, large; [4]): 70 | Crabgrass, Large plant response rating (crabgrass, large; [5]): 90 | Plant response rating, Crabgrass, Large (crabgrass, large; [6]): 90 | Plant response rating, Foxtail, Giant (giant foxtail; [3]): 30 | Plant response rating, Foxtail, Giant (giant foxtail; [4]): 60 | Foxtail, Giant plant response rating (giant foxtail; [5]): 90 | Plant response rating, Foxtail, Giant (giant foxtail; [6]): 90 | Plant response rating, Morningglory (morningglory; [4]): 0 | Morningglory plant response rating (morningglory; [5]): 0 | Plant response rating, Morningglory (morningglory; [6]): 0 | Plant response rating, Pigweed (pigweed; [4]): 0 | Pigweed plant response rating (pigweed; [5]): 0 | Plant response rating, Pigweed (pigweed; [6]): 0 | Plant response rating, Velvetleaf (velvetleaf; [4]): 0 | Velvetleaf plant response rating (velvetleaf; [5]): 0 | Plant response rating, Velvetleaf (velvetleaf; [6]): 0 | Plant response rating, Wheat (wheat; [4]): 0 | Wheat plant response rating (wheat; [5]): 0 | Plant response rating, Wheat (wheat; [6]): 0 | Plant response rating, Corn (corn; [3]): 0 | Plant response rating, Corn (corn; [4]): 0 | Corn plant response rating (corn; [5]): 0 | Plant response rating, Corn (corn; [6]): 0 | Plant response rating, Rice (rice; [7]): 0 | Plant response rating, Rice (rice; [8]): 0 | Plant response rating, Rice (rice; [9]): 0 | Plant response rating, Rice (rice; 250 g ai/ha, scale 0 to 100): 0 | Plant response rating, Sedge, Umbrella (sedge, umbrella; [7]): 0 | Plant response rating, Sedge, Umbrella (sedge, umbrella; [8]): 0 | Plant response rating, Sedge, Umbrella (sedge, umbrella; [9]): 0 | Plant response rating, Sedge, Umbrella (sedge, umbrella; 250 g ai/ha, scale 0 to 100): 0 | Plant response rating, Ducksalad (ducksalad; [7]): 0 | Plant response rating, Ducksalad (ducksalad; [8]): 0 | Plant response rating, Ducksalad (ducksalad; [9]): 0 | Plant response rating, Ducksalad (ducksalad; 250 g ai/ha, scale 0 to 100): 0 | Plant response rating, Barnyardgrass (barnyardgrass [2]; [7]): 0 | Plant response rating, Barnyardgrass (barnyardgrass [2]; [8]): 0 | Plant response rating, Barnyardgrass (barnyardgrass [2]; [9]): 0 | Plant response rating, Barnyardgrass (barnyardgrass [2]; 250 g ai/ha, scale 0 to 100): 0

O=C1NCC(c2ccc(F)c(F)c2)C1C(=O)Nc1cccc(Cl)c1 (racemic) [Compound 18]
Plant response rating, Barnyardgrass (barnyardgrass [1]; [10]): 50 | Plant response rating, Barnyardgrass (barnyardgrass [1]; [11]): 80 | Plant response rating, Crabgrass, Large (crabgrass, large; [10]): 70 | Plant response rating, Crabgrass, Large (crabgrass, large; [11]): 80 | Plant response rating, Foxtail, Giant (giant foxtail; [10]): 70 | Plant response rating, Foxtail, Giant (giant foxtail; [11]): 80 | Plant response rating, Morningglory (morningglory; [10]): 0 | Plant response rating, Morningglory (morningglory; [11]): 0 | Plant response rating, Pigweed (pigweed; [10]): 0 | Plant response rating, Pigweed (pigweed; [11]): 0 | Plant response rating, Velvetleaf (velvetleaf; [10]): 0 | Plant response rating, Velvetleaf (velvetleaf; [11]): 0 | Plant response rating, Wheat (wheat; [10]): 0 | Plant response rating, Wheat (wheat; [11]): 0 | Plant response rating, Corn (corn; [10]): 0 | Plant response rating, Corn (corn; [11]): 0 | Plant response rating, Rice (rice; [7]): 0 | Plant response rating, Rice (rice; [8]): 0 | Plant response rating, Rice (rice; [9]): 0 | Plant response rating, Rice (rice; 250 g ai/ha, scale 0 to 100): 0 | Plant response rating, Sedge, Umbrella (sedge, umbrella; [7]): 0 | Plant response rating, Sedge, Umbrella (sedge, umbrella; [8]): 0 | Plant response rating, Sedge, Umbrella (sedge, umbrella; [9]): 0 | Plant response rating, Sedge, Umbrella (sedge, umbrella; 250 g ai/ha, scale 0 to 100): 0 | Plant response rating, Ducksalad (ducksalad; [7]): 0 | Plant response rating, Ducksalad (ducksalad; [8]): 0 | Plant response rating, Ducksalad (ducksalad; [9]): 0 | Plant response rating, Ducksalad (ducksalad; 250 g ai/ha, scale 0 to 100): 0 | Plant response rating, Barnyardgrass (barnyardgrass [2]; [7]): 0 | Plant response rating, Barnyardgrass (barnyardgrass [2]; [8]): 0 | Plant response rating, Barnyardgrass (barnyardgrass [2]; [9]): 0 | Plant response rating, Barnyardgrass (barnyardgrass [2]; 250 g ai/ha, scale 0 to 100): 0
